Data on three molecules can be found in patent US6720480B2, “Maize proteinase inhibitor-like polynucleotides and defense-activated promoter, transformed plants, and methods of use” (Pioneer Hi-Bred International, Inc., priority 2000, dated 2004).

Several values for one entry are separate records, joined by “and”; a condition that tells them apart may be missing. Identical values can stand only once.

Test [1] concerns zmBBI1::GUS (proteinase inhibitor-like promoter). Put plainly: Co-bombardment of maize immature embryos with zmBBI1::GUS, GUS fluorometric assay after chemical treatment. The test is classed as cell-based. As to conditions: for normalized promoter activity (GUS/Luci), Table 2b: Lucif adj for SA (/0.38); for normalized promoter activity (GUS/Luci), Table 2a: luciferase of sample with no chemicals; for GUS/Luci: Lucif adj for SA and JA (Luci for none); for GUS/Luci / GUS pmol MU/min/ml extract (ave) / GUS pmol MU/min/ml extract (ave), less backg 45.6: Rep 1 and 2; for GUS pmol MU/min/ml extract (ave) / GUS pmol MU/min/ml extract (ave), less backg 45.6: SA 1 mM, JA 0.1 mM; for GUS pmol MU/min/ml extract (ave): 20 h; for GUS pmol MU/min/ml extract (ave), less backg 45.6: second GUS column without own head. How it is done:
The activity of the promoter was also studied in the presence of the putative defense activator, zmNPR1. Specifically, maize immature embryos (IE) were co-bombarded with the zmBBI1::GUS construct along with Act::luciferease as an internal standard and either a carrier DNA or an putative defense activators, zmNPR1 (U.S. patent application Ser. No. 09/551,778, filed Apr. 18, 2000, herein incorporated by reference). Particle preparation and DNA coating were carried out as described by Zhang et al.((2000) Plant Cell Reports 19:241-250) except for use of tungsten (1.0 μm) particles and different amounts of DNA: 50 μl zmBBI1::GUS at 0.02 μg/μl, Act::luciferase at 0.1 μg/μl, and 5 μl of the carrier or activator DNA at 1.0 μg/μl. The amount of DNA delivered for each bombardment were 0.33, 0.17, and 1.67 μg for zmBBI1::GUS, Act::luciferase, and the carrier or activator, respectively. The DNA concentration for zmBBI1::GUS was chosen in previous experiments for low background expression. A total of 45 IEs were used for each bombardment. IEs were placed on the osmotic medium (Vain et al. (1993) Plant Cell Reports 12:84-88) for 4 h before bombardment. The distance from the stopping screen to the target was 10 cm and bombardment was done at 650 psi with a PDS 1000/He device (Bio-Rad Laboratories).
After the bombardment the IEs were cultured on the same osmotic medium for 20-24 hr. Subsequently, the 45 IEs were randomly divided into three groups, 15 IEs for each. They were, then, transferred to three new petri dishes (60×25 mm) for chemical treatments. A piece of filter paper had been placed in each petri dish and wetted with 1.25 ml of 560Y liquid medium containing no chemical, 1 mM SA and 0.1 mM JA, respectively. The IEs were cultured again for another 20 h.
Three IEs from each group were then histochemically stained in X-Gluc staining solution (McCabe et al. (1988) Bio/Technology 6:923-926) for overnight at 37° C. The rest of the IEs were subjected to GUS fluorometric and luciferase assays. Fluorometric measurements of GUS activity were performed by using 50 μl protein extract prepared from the 12 IEs of each treatment and quantified in Fluoroskan Ascent FL (Labsystem) for two time points, 10 and 30 min. Luciferase activity was quantified in a Monolight 2010 (Analytical Luminescence Lab) by mixing 20 μl of protein extract with 100 μl of reaction buffer (Dual-Luciferase Reporter Assay System, Promega) and taking the measurements after 10 s. […]

For test [2], the system named is nucleotide sequences operably linked to the proteinase inhibitor-like promoter. As to conditions: HC-toxin 1 μg/ml; Northern analysis, average of 3 repeated experiments.

For the molecule `CC/C=C\C[C@H]1C(=O)CC[C@@H]1CC(=O)O` [JA, jasmonic acid], the “normalized promoter activity (GUS/Luci), Table 2b” value in test [1] (Rep 1, NPR1+) was 3.39; in test [1] (Rep 1, NPR1−), 8.73; in test [1] (Rep 2, NPR1+), 3.54; in test [1] (Rep 2, NPR1−), 11.42. Also, the “normalized promoter activity (GUS/Luci), Table 2a” value came to 3.19 in test [1] (Rep 1, NPR1+); 6.5 in test [1] (Rep 1, NPR1−); 3.19 in test [1] (Rep 2, NPR1+); 11.74 in test [1] (Rep 2, NPR1−). Moreover, the GUS/Luci was 11.74 and 6.50 in test [1] (zmNPR1 N); 3.19 in test [1] (zmNPR1 Y). The “GUS pmol MU/min/ml extract (ave)” value was 62.22 pmol MU/min/ml extract and 58.61 pmol MU/min/ml extract in test [1] (zmNPR1 N); 55.25 pmol MU/min/ml extract and 54.57 pmol MU/min/ml extract in test [1] (zmNPR1 Y). The “GUS pmol MU/min/ml extract (ave), less backg 45.6” value in test [1] (zmNPR1 N) was 16.62 pmol MU/min/ml extract and 13.01 pmol MU/min/ml extract; in test [1] (zmNPR1 Y), 9.65 pmol MU/min/ml extract and 8.97 pmol MU/min/ml extract.
For `O=C(O)c1ccccc1O` [SA, salicylic acid], the “normalized promoter activity (GUS/Luci), Table 2b” value came out at 13.95 in test [1] (Rep 1, NPR1+); 34.87 in test [1] (Rep 1, NPR1−); 14.91 in test [1] (Rep 2, NPR1+); 31.15 in test [1] (Rep 2, NPR1−). The “normalized promoter activity (GUS/Luci), Table 2a” value was determined as 20.12 in test [1] (Rep 1, NPR1+); 38.35 in test [1] (Rep 1, NPR1−); 19.22 in test [1] (Rep 2, NPR1+); 40.51 in test [1] (Rep 2, NPR1−). Further, the “expression of sequence operably linked to the proteinase inhibitor-like promoter (in words)” value in test [1] (maize immature embryos co-bombarded with zmBBI1::GUS) is on record as “induces expression”. Further, the GUS/Luci in test [1] (zmNPR1 N) was 40.15 and 38.35; in test [1] (zmNPR1 Y), 20.12 and 19.22. The “GUS pmol MU/min/ml extract (ave)” value in test [1] (zmNPR1 N) is 102.94 pmol MU/min/ml extract and 122.31 pmol MU/min/ml extract; in test [1] (zmNPR1 Y) it was 106.54 pmol MU/min/ml extract and 99.71 pmol MU/min/ml extract. Further, the “GUS pmol MU/min/ml extract (ave), less backg 45.6” value in test [1] (zmNPR1 N) is 57.34 pmol MU/min/ml extract and 76.71 pmol MU/min/ml extract; in test [1] (zmNPR1 Y) it was 60.94 pmol MU/min/ml extract and 54.11 pmol MU/min/ml extract.
Turning to `C[C@@H]1NC(=O)[C@H]2CCCN2C(=O)[C@H](CCCCCC(=O)[C@@H]2CO2)NC(=O)[C@@H](C)NC1=O` [HC-toxin], the “increase in expression level of the reporter sequence linked to the promoter” value in test [2] is 2 fold.
